Experimental data as given in PubChem BioAssay AID256 (DTP/NCI, 2004).
Several values for one entry are separate records, joined by “and”; a condition that tells them apart may be missing. Equal entries are not always repeated. Toxic doses and inconclusive results are not listed. How the source made its calls: active means survival T/C of 150% or more; inactive means T/C below 125% in these data.

System: CD2F1 mice, L1210 leukemia ip, survival T/C
Test: NCI In Vivo Anticancer Drug Screen. Data for tumor model L1210 Leukemia (intraperitoneal) in CD2F1 (CDF1) mice
Details: higher = longer survival
Method in brief: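 Transplantable tumor in mice; compound-treated vs vehicle-treated groups. Read-out = treated/control ratio of the measured endpoint.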

[1] = endpoint: mean survival time, dose: 100.0 mg/kg/injection, schedule: Q01DX001 (ip), vehicle: saline with Tween-80
[2] = endpoint: mean survival time, dose: 200.0 mg/kg/injection, schedule: Q01DX001 (ip), vehicle: saline with Tween-80
[3] = endpoint: mean survival time, dose: 400.0 mg/kg/injection, schedule: Q01DX001 (ip), vehicle: saline with Tween-80
[4] = endpoint: mean survival time, dose: 12.5 mg/kg/injection, schedule: Q04DX003 (ip), vehicle: saline with Tween-80
[5] = endpoint: mean survival time, dose: 25.0 mg/kg/injection, schedule: Q04DX003 (ip), vehicle: saline with Tween-80
[6] = endpoint: mean survival time, dose: 100.0 mg/kg/injection, schedule: Q04DX003 (ip), vehicle: saline with Tween-80
[7] = endpoint: mean survival time, dose: 100.0 mg/kg/injection, schedule: Q01DX009 (ip), vehicle: saline with Tween-80
[8] = endpoint: mean survival time, dose: 200.0 mg/kg/injection, schedule: Q01DX009 (ip), vehicle: saline with Tween-80
[9] = endpoint: mean survival time, dose: 400.0 mg/kg/injection, schedule: Q01DX009 (ip), vehicle: saline with Tween-80
[10] = endpoint: mean survival time, dose: 100.0 mg/kg/injection, schedule: Q04DX003 (ip), vehicle: saline
[11] = endpoint: mean survival time, dose: 200.0 mg/kg/injection, schedule: Q04DX003 (ip), vehicle: saline
[12] = endpoint: mean survival time, dose: 400.0 mg/kg/injection, schedule: Q04DX003 (ip), vehicle: saline
[13] = endpoint: mean survival time, dose: 12.5 mg/kg/injection, schedule: Q01DX009 (ip), vehicle: saline with Tween-80
[14] = endpoint: mean survival time, dose: 25.0 mg/kg/injection, schedule: Q01DX009 (ip), vehicle: saline with Tween-80
[15] = endpoint: mean survival time, dose: 50.0 mg/kg/injection, schedule: Q01DX009 (ip), vehicle: saline with Tween-80
[16] = endpoint: mean survival time, dose: 50.0 mg/kg/injection, schedule: Q01DX001 (ip), vehicle: saline with Tween-80

Measured: T/C

COc1cc2c(c(OC)c1OC)-c1ccc(SC)c(=O)cc1[C@@H](NC(C)=O)CC2
inactive: endpoint: mean survival time, dose: 0.2 mg/kg/injection, schedule: Q01DX009 (ip), vehicle: Klucel (hydroxypropylcellulose) (HPC) 86 % of control | endpoint: mean survival time, dose: 0.75 mg/kg/injection, schedule: Q04DX002 (ip), vehicle: Klucel (hydroxypropylcellulose) (HPC) 121 % of control | endpoint: mean survival time, dose: 3.0 mg/kg/injection, schedule: Q04DX002 (ip), vehicle: Klucel (hydroxypropylcellulose) (HPC) 118 % of control and 95 % of control | endpoint: mean survival time, dose: 6.0 mg/kg/injection, schedule: Q04DX002 (ip), vehicle: Klucel (hydroxypropylcellulose) (HPC) 97 % of control

Cc1ccc(CC(F)F)cc1
inactive: [1] 101 % of control | endpoint: mean survival time, dose: 100.0 mg/kg/injection, schedule: Q04DX003 (ip), vehicle: saline sonified 98 % of control | [2] 101 % of control | endpoint: mean survival time, dose: 200.0 mg/kg/injection, schedule: Q04DX003 (ip), vehicle: saline sonified 96 % of control | [3] 103 % of control | endpoint: mean survival time, dose: 400.0 mg/kg/injection, schedule: Q04DX003 (ip), vehicle: saline sonified 96 % of control

O=C1C=CC(=O)N1c1ccc(Cl)cc1Cl
inactive: [4] 103 % of control | [5] 100 % of control

c1cn[nH]c1
inactive: endpoint: median survival time, dose: 12.5 mg/kg/injection, schedule: Q01DX009 (ip), vehicle: saline + alcohol 103 % of control and 105 % of control | endpoint: median survival time, dose: 12.5 mg/kg/injection, schedule: Q01DX009 (ip), vehicle: saline 95 % of control | endpoint: median survival time, dose: 25.0 mg/kg/injection, schedule: Q01DX009 (ip), vehicle: saline + alcohol 101 % of control and 110 % of control | endpoint: median survival time, dose: 25.0 mg/kg/injection, schedule: Q01DX009 (ip), vehicle: saline 102 % of control | endpoint: median survival time, dose: 50.0 mg/kg/injection, schedule: Q01DX009 (ip), vehicle: saline + alcohol 121 % of control and 105 % of control | endpoint: median survival time, dose: 50.0 mg/kg/injection, schedule: Q01DX009 (ip), vehicle: saline 112 % of control | endpoint: median survival time, dose: 100.0 mg/kg/injection, schedule: Q01DX009 (ip), vehicle: saline + alcohol 117 % of control | endpoint: median survival time, dose: 200.0 mg/kg/injection, schedule: Q01DX009 (ip), vehicle: saline + alcohol 90 % of control and 102 % of control | endpoint: median survival time, dose: 200.0 mg/kg/injection, schedule: Q01DX009 (ip), vehicle: saline 90 % of control

O=C1OC(c2ccccc2)CC1N1CCCCC1 (centres undefined)
inactive: endpoint: mean survival time, dose: 6.25 mg/kg/injection, schedule: Q01DX009 (ip), vehicle: saline sonified 92 % of control | endpoint: mean survival time, dose: 12.5 mg/kg/injection, schedule: Q01DX009 (ip), vehicle: saline sonified 101 % of control | endpoint: mean survival time, dose: 25.0 mg/kg/injection, schedule: Q01DX009 (ip), vehicle: saline sonified 105 % of control

Cc1ccc(NC(=O)OCCSC(=O)COc2ccc(Cl)cc2Cl)cc1
inactive: [6] 98 % of control | endpoint: mean survival time, dose: 200.0 mg/kg/injection, schedule: Q04DX003 (ip), vehicle: saline with Tween-80 98 % of control | endpoint: mean survival time, dose: 400.0 mg/kg/injection, schedule: Q04DX003 (ip), vehicle: saline with Tween-80 93 % of control

c1csc(CCc2nc3ccccc3o2)c1
inactive: [1] 103 % of control | [7] 93 % of control | [2] 98 % of control | [8] 97 % of control | [3] 112 % of control | [9] 93 % of control

CCOP(=O)(OCC)C(C)OC (centres undefined)
inactive: [10] 97 % of control | [11] 108 % of control | [12] 97 % of control

Cc1cc(C)c(C#[N+][O-])c(C)c1
inactive: [13] 97 % of control | [14] 94 % of control | [15] 91 % of control

Cc1ccc(S(=O)c2ccc(C)cc2)cc1
inactive: endpoint: mean survival time, dose: 100.0 mg/kg/injection, schedule: Q01DX001 (ip), vehicle: Klucel (hydroxypropylcellulose) (HPC) 101 % of control | [1] 100 % of control | endpoint: mean survival time, dose: 200.0 mg/kg/injection, schedule: Q01DX001 (ip), vehicle: Klucel (hydroxypropylcellulose) (HPC) 89 % of control | [2] 103 % of control | endpoint: mean survival time, dose: 400.0 mg/kg/injection, schedule: Q01DX001 (ip), vehicle: Klucel (hydroxypropylcellulose) (HPC) 93 % of control | [3] 100 % of control

Cc1c(N)nc(I)c2ccccc12
inactive: [7] 98 % of control | [8] 93 % of control | [9] 87 % of control

C=CCOCC(O)C[As](=O)(O)c1ccc(OC)cc1 (centres undefined)
inactive: endpoint: mean survival time, dose: 6.25 mg/kg/injection, schedule: Q04DX003 (ip), vehicle: saline with Tween-80 92 % of control | [4] 101 % of control | [5] 98 % of control

Cc1cccc(C)c1N=C(c1ccccc1)N(O)c1ccccc1
inactive: endpoint: mean survival time, dose: 1.88 mg/kg/injection, schedule: Q01DX009 (ip), vehicle: saline with Tween-80 101 % of control | endpoint: mean survival time, dose: 1.88 mg/kg/injection, schedule: Q04DX003 (ip), vehicle: saline 93 % of control | endpoint: mean survival time, dose: 3.75 mg/kg/injection, schedule: Q01DX009 (ip), vehicle: saline with Tween-80 95 % of control | endpoint: mean survival time, dose: 3.75 mg/kg/injection, schedule: Q04DX003 (ip), vehicle: saline 96 % of control | endpoint: mean survival time, dose: 7.5 mg/kg/injection, schedule: Q01DX001 (ip), vehicle: saline 103 % of control | endpoint: mean survival time, dose: 7.5 mg/kg/injection, schedule: Q01DX009 (ip), vehicle: saline with Tween-80 98 % of control | endpoint: mean survival time, dose: 7.5 mg/kg/injection, schedule: Q04DX003 (ip), vehicle: saline 98 % of control

COc1ccc(C(=O)OCC(=O)O)cc1
inactive: [16] 102 % of control | [1] 98 % of control | [2] 102 % of control

O=C(O)C1CC[N-]CC1.O=C(O)C1CC[N-]CC1.[Cl][Pt+2][Cl]
inactive: [16] 110 % of control | [6] 107 % of control | [2] 110 % of control | [8] 97 % of control

O=[N+]([O-])c1ccc2[nH]ncc2c1
inactive: [1] 103 % of control | [2] 92 % of control | [3] 100 % of control

Cc1ccc2c(/C=C/c3ccc(N(C)C)cc3)ccnc2c1
inactive: endpoint: mean survival time, dose: 100.0 mg/kg/injection, schedule: Q04DX003 (ip), vehicle: Klucel (hydroxypropylcellulose) (HPC) 93 % of control | endpoint: mean survival time, dose: 200.0 mg/kg/injection, schedule: Q04DX003 (ip), vehicle: Klucel (hydroxypropylcellulose) (HPC) 104 % of control | endpoint: mean survival time, dose: 400.0 mg/kg/injection, schedule: Q04DX003 (ip), vehicle: Klucel (hydroxypropylcellulose) (HPC) 116 % of control

CN(C)N=Nc1ccc(Cl)cc1C(N)=O
inactive: endpoint: mean survival time, dose: 18.8 mg/kg/injection, schedule: Q01DX009 (ip), vehicle: Klucel (hydroxypropylcellulose) (HPC) 93 % of control and 98 % of control | endpoint: mean survival time, dose: 37.5 mg/kg/injection, schedule: Q01DX009 (ip), vehicle: Klucel (hydroxypropylcellulose) (HPC) 91 % of control and 95 % of control | endpoint: mean survival time, dose: 75.0 mg/kg/injection, schedule: Q01DX009 (ip), vehicle: Klucel (hydroxypropylcellulose) (HPC) 91 % of control and 104 % of control | endpoint: mean survival time, dose: 150.0 mg/kg/injection, schedule: Q01DX009 (ip), vehicle: Klucel (hydroxypropylcellulose) (HPC) 114 % of control

Cc1ccc(S(=O)(=O)NC(=O)OC23COCN2COC3)cc1
inactive: [13] 96 % of control and 101 % of control | [14] 96 % of control and 102 % of control | [15] 97 % of control and 101 % of control | [7] 117 % of control and 102 % of control | [8] 113 % of control and 108 % of control | [9] 113 % of control and 105 % of control

CN(C)CC1CCC/C(=C\C=C\c2ccccc2)C1=O (centres undefined)
inactive: endpoint: mean survival time, dose: 12.5 mg/kg/injection, schedule: Q04DX003 (ip), vehicle: Klucel (hydroxypropylcellulose) (HPC) 100 % of control | endpoint: mean survival time, dose: 25.0 mg/kg/injection, schedule: Q04DX003 (ip), vehicle: Klucel (hydroxypropylcellulose) (HPC) 103 % of control | endpoint: mean survival time, dose: 50.0 mg/kg/injection, schedule: Q04DX003 (ip), vehicle: Klucel (hydroxypropylcellulose) (HPC) 94 % of control

CN(C)c1ccc2c(c1)Oc1cc(N(C)C)ccc1C21OC(=O)c2ccccc21
inactive: [1] 97 % of control | [2] 101 % of control | [3] 97 % of control

CSc1sc2cc([N+](=O)[O-])ccc2[n+]1C
inactive: endpoint: mean survival time, dose: 75.0 mg/kg/injection, schedule: Q01DX001 (ip), vehicle: saline 103 % of control

O=C(/C=C\c1ccc(O)c(O)c1)OC1C(O)CC(OC(=O)/C=C/c2ccc(O)c(O)c2)(C(=O)O)CC1O (centres undefined)
inactive: [10] 98 % of control | [11] 96 % of control | [12] 95 % of control

O=S(=O)(c1ccccc1)c1ccc(Br)cc1
inactive: [7] 94 % of control | [8] 96 % of control | [9] 98 % of control

COc1cc(OC)c(NC(=O)Oc2ccc(SC)cc2)cc1Cl
inactive: [13] 94 % of control | [14] 97 % of control | [15] 97 % of control | [7] 88 % of control | [8] 92 % of control
